Results taken from ChEMBL document CHEMBL1201862, “PubChem BioAssay data set” (2004).
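A five-concentration, 48-hour dose response in 96-well plates underlies each endpoint, interpolated linearly between surrounding concentrations. Abbreviation: GI50, concentration required for 50% inhibition of growth.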 Active and inactive are the calls of the source. No stated cut-off is given here; in the data, active = GI50 up to about 1.1 µM and inactive = higher.

How the values were obtained:
Assay in all cases: NCI anticancer screen, dose series, 48 h
[1] = system: 786-0
[2] = system: A549
[3] = system: ACHN
[4] = system: CAKI-1
[5] = system: CCRF-CEM
[6] = system: COLO 205
[7] = system: DU-145
[8] = system: EKVX
[9] = system: HCC 2998
[10] = system: HCT-116
[11] = system: HCT-15
[12] = system: HL-60
[13] = system: HOP-62
[14] = system: HOP-92
[15] = system: HT-29
[16] = system: Hs-578T
[17] = system: IGROV-1
[18] = system: K562
[19] = system: KM12
[20] = system: LOX IMVI
[21] = system: M14
[22] = system: MCF7
[23] = system: MDA-MB-231
[24] = system: MDA-MB-435
[25] = system: MDA-N
[26] = system: MOLT-4
[27] = system: Malme-3M
[28] = system: NCI-H226
[29] = system: NCI-H23
[30] = system: NCI-H460
[31] = system: NCI-H522
[32] = system: NCI/ADR-RES
[33] = system: OVCAR-3
[34] = system: OVCAR-4
[35] = system: OVCAR-5
[36] = system: OVCAR-8
[37] = system: PC-3
[38] = system: RPMI-8226
[39] = system: RXF 393
[40] = system: SF-268
[41] = system: SF-295
[42] = system: SF-539
[43] = system: SK-MEL-28
[44] = system: SK-MEL-2
[45] = system: SK-MEL-5
[46] = system: SK-OV-3
[47] = system: SN12C
[48] = system: SNB-19
[49] = system: SNB-75
[50] = system: SR
[51] = system: SW-620
[52] = system: T47D
[53] = system: TK-10
[54] = system: U-251
[55] = system: UACC-257
[56] = system: UACC-62
[57] = system: UO-31
[58] = system: A498

Structure (SMILES): COc1ccc(/N=N/c2c(-c3c(OC)cc4occc4c3OC)[nH]c(=O)c(C#N)c2C)cc1
- GI50 [1]: > 100 µM (inactive)
- GI50 [2]: > 100 µM (inactive)
- GI50 [3]: > 100 µM (inactive)
- GI50 [4]: > 100 µM (inactive)
- GI50 [5]: > 100 µM (inactive)
- GI50 [6]: > 100 µM (inactive)
- GI50 [7]: > 100 µM (inactive)
- GI50 [8]: > 100 µM (inactive)
- GI50 [9]: > 100 µM (inactive)
- GI50 [10]: > 100 µM (inactive)
- GI50 [11]: > 100 µM
- GI50 [12]: > 100 µM (inactive)
- GI50 [13]: > 100 µM (inactive)
- GI50 [14]: > 100 µM (inactive)
- GI50 [15]: > 100 µM (inactive)
- GI50 [16]: > 100 µM (inactive)
- GI50 [17]: 76.2 µM (inactive)
- GI50 [18]: > 100 µM (inactive)
- GI50 [19]: > 100 µM (inactive)
- GI50 [20]: > 100 µM (inactive)
- GI50 [21]: > 100 µM (inactive)
- GI50 [22]: > 100 µM (inactive)
- GI50 [23]: > 100 µM (inactive)
- GI50 [24]: > 100 µM (inactive)
- GI50 [25]: > 100 µM (inactive)
- GI50 [26]: > 100 µM (inactive)
- GI50 [27]: 55 µM (inactive)
- GI50 [28]: > 100 µM (inactive)
- GI50 [29]: > 100 µM (inactive)
- GI50 [30]: > 100 µM (inactive)
- GI50 [31]: > 100 µM (inactive)
- GI50 [32]: > 100 µM (inactive)
- GI50 [33]: > 100 µM (inactive)
- GI50 [34]: > 100 µM (inactive)
- GI50 [35]: > 100 µM (inactive)
- GI50 [36]: > 100 µM (inactive)
- GI50 [37]: > 100 µM (inactive)
- GI50 [38]: > 100 µM (inactive)
- GI50 [39]: > 100 µM (inactive)
- GI50 [40]: > 100 µM (inactive)
- GI50 [41]: > 100 µM (inactive)
- GI50 [42]: > 100 µM (inactive)
- GI50 [43]: > 100 µM (inactive)
- GI50 [44]: > 100 µM (inactive)
- GI50 [45]: > 100 µM (inactive)
- GI50 [46]: > 100 µM (inactive)
- GI50 [47]: > 100 µM (inactive)
- GI50 [48]: > 100 µM (inactive)
- GI50 [49]: 53.2 µM (inactive)
- GI50 [50]: > 100 µM (inactive)
- GI50 [51]: > 100 µM (inactive)
- GI50 [52]: > 100 µM (inactive)
- GI50 [53]: > 100 µM (inactive)
- GI50 [54]: > 100 µM (inactive)
- GI50 [55]: > 100 µM (inactive)
- GI50 [56]: > 100 µM (inactive)
- GI50 [57]: > 100 µM (inactive)

Structure (SMILES): O=C1CSC2=NC3=C(CSC/C3=C\c3ccccc3)C(c3ccccc3)N12 (stereo not drawn)
- GI50 [1]: > 100 µM (inactive)
- GI50 [2]: 50.6 µM (inactive)
- GI50 [3]: 57.5 µM (inactive)
- GI50 [5]: 33.8 µM (inactive)
- GI50 [6]: > 100 µM (inactive)
- GI50 [7]: > 100 µM (inactive)
- GI50 [8]: > 100 µM (inactive)
- GI50 [9]: > 100 µM (inactive)
- GI50 [10]: 50.2 µM (inactive)
- GI50 [11]: > 100 µM
- GI50 [12]: 32.2 µM (inactive)
- GI50 [13]: > 100 µM (inactive)
- GI50 [14]: 46 µM (inactive)
- GI50 [15]: 95.5 µM (inactive)
- GI50 [16]: > 100 µM (inactive)
- GI50 [17]: > 100 µM (inactive)
- GI50 [18]: 39.4 µM (inactive)
- GI50 [19]: 70.3 µM (inactive)
- GI50 [20]: 44.5 µM (inactive)
- GI50 [21]: 41.5 µM (inactive)
- GI50 [22]: 33.3 µM (inactive)
- GI50 [23]: > 100 µM (inactive)
- GI50 [24]: 65.5 µM (inactive)
- GI50 [25]: 32.6 µM (inactive)
- GI50 [26]: 53.5 µM (inactive)
- GI50 [27]: > 100 µM (inactive)
- GI50 [28]: > 100 µM (inactive)
- GI50 [29]: 62.1 µM (inactive)
- GI50 [30]: 81.3 µM (inactive)
- GI50 [32]: > 100 µM (inactive)
- GI50 [33]: 88.9 µM (inactive)
- GI50 [34]: > 100 µM (inactive)
- GI50 [35]: > 100 µM (inactive)
- GI50 [36]: 86.5 µM (inactive)
- GI50 [37]: 28.1 µM (inactive)
- GI50 [38]: 31.1 µM (inactive)
- GI50 [40]: > 100 µM (inactive)
- GI50 [41]: > 100 µM (inactive)
- GI50 [42]: > 100 µM (inactive)
- GI50 [43]: > 100 µM (inactive)
- GI50 [44]: > 100 µM (inactive)
- GI50 [45]: 52.1 µM (inactive)
- GI50 [46]: > 100 µM (inactive)
- GI50 [47]: 92.9 µM (inactive)
- GI50 [49]: 29.6 µM (inactive)
- GI50 [50]: 65.3 µM (inactive)
- GI50 [51]: 84.9 µM (inactive)
- GI50 [52]: 52.2 µM (inactive)
- GI50 [53]: > 100 µM (inactive)
- GI50 [54]: 39.8 µM (inactive)
- GI50 [55]: > 100 µM (inactive)
- GI50 [56]: > 100 µM (inactive)
- GI50 [57]: 24.9 µM (inactive)

Structure (SMILES): C[C@H](CCC(=O)O)[C@H]1CC[C@H]2[C@@H]3CC[C@@H]4C[C@H](O)CC[C@]4(C)[C@H]3CC[C@]12C [LITHOCHOLIC ACID]
- GI50 [58]: > 100 µM (inactive)

Structure (SMILES): C[C@@H]1O[C@@H](O[C@H]2C[C@@H](O)[C@]3(CO)[C@H]4[C@H](O)C[C@]5(C)[C@@H](C6=CC(=O)OC6)CC[C@]5(O)[C@@H]4CC[C@]3(O)C2)[C@H](O)[C@H](O)[C@H]1O [OUABAIN]
- GI50 [5]: 21.1 µM (inactive)
- GI50 [49]: 0.0162 µM (active)
